Measured values as given in US20140275282A1, “Treating osteopenia and related disorders with geranylgeranyl acetone and derivatives thereof” (COYOTE PHARMACEUTICALS, INC., priority 2013, published 2014).

Test system: osteoclast-mediated bone resorption
Assay: Inhibition of osteoclast function in vivo by monitoring bone resorption in young growing mice
Settings: young growing mice aged 3-4 weeks, subcutaneous bid for 14 days (5 mg/kg/day)
Procedure: GGA and derivatives can be tested for their ability to modulate osteoclast function by administering to animals and monitoring bone resorption. One model is to determine the effects on bone resorption of young growing mice as previously described (Schenk et al., Calcif. Tissues Int 38:342-349, 1986; Simonet et al., Cell 89, 308-319, 1997). Young growing mice aged 3-4 weeks, weight range 9.2-15.7 g are divided into groups of ten mice per group. These mice are injected subcutaneously with saline or test compounds bid for 14 days (5 mg/kg/day). The mice are then radiographed before treatment, at day 7 and on day 14. The mice were sacrificed 24 hours after the final injection. The right femur is then removed, fixed in zinc formalin, decalcified in formic acid and embedded in paraffin. Sections are cut through the mid region of the distal femoral metaphysis and the femoral shaft. Bone density, by histomorphometry, is determined in six adjacent regions extending from the metaphyseal limit of the growth plate, through the primary and secondary spongiosa and into the femoral diaphysis (shaft). […] This is a region where bone is rapidly removed by osteoclast-mediated bone resorption in mice. In these rapidly growing young mice, the increase in bone in this region observed with treatment is consistent with an inhibition of bone resorption.

## CC(=O)CCC=C(C)CCC=C(C)CCC=C(C)CCC=C(C)C [GGA, Geranylgeranyl acetone]
After seven days of treatment
  Radiographic changes: zone of bone density in the spongiosa associated with the growth plates, relative to controls: increased bone density
Right femur removed 24 hours after final injection
  Histological changes: bone density (histomorphometry) in distal femoral metaphysis, regions 1.1 to 2.65 mm from the growth plate: increased bone density
